Here are results for six compounds from patent publication US10774084B2, “Adenine derivatives and their use as UV-photoprotective agents” (UNIVERZITA PALACKEHO V OLOMOUCI, priority 2015, dated 2020).

Series [1] concerns skin fibroblasts BJ and keratinocytes HaCaT. Nature of the series: MTT in vitro cytotoxicity test for skin cells. It is filed as cell-based. Conditions: Homo sapiens; 72 hour treatment; table does not say which cell line (BJ, HaCaT). On the procedure: MTT assay is a standard test of toxicity based on photometric measurement of the ability of metabolically active cells to reduce MTT (3-(4,5-dimethylthiazol-2-yl)-2,5-diphenyltetrazolium bromide). Using the assay, the effects of 72 hour treatments with several concentrations of the compounds (sixfold dilution, maximal concentration=50 microM) on viability of skin fibroblasts BJ and keratinocytes HaCaT were evaluated. About 5,000 cells were seeded per well of a 96-well plate 24 hours before the treatment. DMSO vehiculum was used as a negative control. After 72 hour treatment, new medium with MTT (Sigma, M2128) was added to a final concentration of 0.5 mg/ml. After 3 hours, medium was removed and resulting formazan in the cells was dissolved in DMSO. The absorbance was measured at 570 nm (640 nm reference wavelength). The IC50 values were calculated from the dose-response curves. 6-furfurylaminopurine riboside was used as positive controls.

For series [2], the system named is Normal human dermal fibroblasts (NHDF). Nature of the series: In vitro phototoxicity test (neutral red) on NHDF. In kind it is cell-based. On the procedure: Phototoxic potential of test compound was determined by modified in vitro test validated phototoxicity evaluation (Spielmann H, Balls M, Dupuis J, Pape W J, Pechovitch G, de Silva O, Holzhiitter H G, Clothier R, Desolle P, Gerberick F, Liebsch M, Lovell W W, Maurer T, Pfannenbecker U, Potthast J M, Csato M, Sladowski D, Steiling W, Brantom P. The International EU/COLIPA In Vitro Phototoxicity Validation Study: Results of Phase II (Blind Trial). Part 1: The 3T3 NRU Phototoxicity Test. Toxicol In Vitro. 1998; 12:305-27). Normal human dermal fibroblasts (NHDF) were used as an in vitro model. Cells were isolated from tissue specimens obtained from healthy patients undergoing plastic surgery at the Department of Plastic and Aesthetic Surgery (University Hospital Olomouc). The use of skin tissue was in accordance with the Ethics Committee of the University Hospital and Faculty of Medicine and Dentistry, Palacky University, Olomouc and all patients signed written informed consent. Fibroblasts were used between the 2nd and 4th passage. For all experiments the fibroblasts were seeded onto 96-well plates at a density of 0.8×10^5 cells/ml (0.2 ml per well) of cultivation medium (DMEM supplemented with fetal calf serum (10%, v/v), penicillin ([…]) and streptomycin (100 U/ml)). Test substances included compounds number 1, 3, 9, 15 and 20. Compounds were dissolved in DMSO and then diluted in serum free medium (DMEM supplemented with penicillin ([…]) and streptomycin (100 U/ml)). After 24 h incubation was cultivation medium changed to serum free medium containing test compound or DMSO (negative control). The final applied concentrations range 3.9-125 μmol/l. As a control, serum free medium supplemented with appropriate concentration of DMSO (0.5%, v/v) was used. In parallel with test compound, chlorpromazine (CPZ; 0.8-50 μmol/l) was used as a known phototoxic compound. The test compound was in parallel applied on two 96-well plates with NHDF. After 60 minutes incubation with test compound medium was discarded, cells were washed two-times with PBS and PBS supplemented with glucose (1 mg/ml) was applied. A plate was then exposed to a non-cytotoxic dose of UVA radiation (5.0 J/cm^2) using a solar simulator SOL 500 (Dr. Hoenle Technology, Germany) equipped with a H1 filter transmitting wavelengths of 320-400 nm. Intensity of UVA radiation was evaluated before each irradiation by UVA-meter. A control (non-irradiated) plate was for the period of irradiation incubated in dark. After UVA exposure PBS with glucose was discarded and serum free medium was applied. After 24 hours (37° C., 5% CO2) cell damage was evaluated by neutral red (NR) incorporation into viable cells. Medium was discarded and NR solution (0.03% w/v, PBS) was applied. After 60 minutes NR solution was discarded, cells were fixed with a mixture of formaldehyde (0.5%, v/v) and CaCl2 (1%, m/v) in ratio 1:1 and then NR was dissolved in methanol (50%, v/v) with acetic acid (1%, v/v). After 5 minutes of intensive shaking absorbance was measured at 540 nm. Experiments were performed in four independent repetitions with use of cells from four donors to minimize individual sensitivity of donor cells. Phototoxic effect was evaluated as % of viability of control cells that was calculated from experimental data (absorbance) according to the following equation:
[formula] • AS . . . absorbance of sample (cells pre-incubated with test compound in serum free medium and irradiated) • AC . . . absorbance of control (cells pre-incubated with DMSO in serum free medium and irradiated) • AB . . . absorbance of background (extraction solution)

For series [3], the system named is Caenorhabditis elegans strain fem-1/HT17. As to the kind of experiment: Lifespan of Caenorhabditis elegans. The note with it: for average lifespan / median lifespan: 25° C.; for effect on lifespan of worms (in words): Log-Rank test, Bonferroni correction. It is filed as in vivo. The text has this:
Caenorhabditis elegans is a model organism used for identification of compounds with possible beneficial effect on human aging and age-related diseases. The list of compounds that prolong the lifespan of C. elegans and are known to have beneficial effect on human health includes resveratrol, curcumin and many others. Some substances that prolong the lifespan of worms are also used in skin rejuvenating and anti-aging cosmetics, for example vitamin E, coenzyme Q10, green tea or pomegranade extracts and cytokinin kinetin. The Caenorhabditis elegans strain used in this experiment was fem-1/HT17. This strain has a heat-inducible mutation which causes all worms to develop into females when cultivated in 25° C. (13). That prevents further reproduction and contamination of the experiment with progeny. Compounds dissolved in DMSO (100 mM stock solutions) were added into fresh NGM (nematode growth medium) to the final concentration of 10 and 50 or 100 μM and pipetted onto a Petri dish. Medium with DMSO vehiculum alone and non-treated medium were used as negative control. After solidification of NGM, the plates were seeded with 100 μl of 20× concentrated overnight suspension of Escherichia coli strain OP50 in LB medium. Bacteria on plates were allowed to grow overnight in 37° C. Age synchronized young adults (obtained by hypochlorite treatment) were then pipetted onto plates. Plates were kept in 25° C. In regular time intervals (1-3 days), the plates were scanned on an Epson perfection V700 photo flatbed scanner. The number of surviving worms was established by image analysis based on comparison of several subsequent photographs and identification of moving objects. Pictures were analyzed in Fiji similarly as described here. Scripts from the original publication were slightly modified and the parameters adjusted to better suit our photo resolution and lighting. Three subsequent pictures of a plate were compared with each other. The average of the 3 resulting numbers was used to reduce the possibility of error. The overall results were then analyzed in programs OASIS and ED50v10. The statistical significance was evaluated by Log-Rank test and P-values were corrected by Bonferroni correction.

SMILES strings stand for the structures.

In turn, `c1nc(NCC2CCCO2)c2ncn(C3CCCO3)c2n1` (stereo not shown) [Compound 1, 6-(tetrahydrofuran-2-ylmethylamino)-9-(tetrahydrofuran-2-yl)purine] registered a 50% inhibitory concentration (IC50) in series [1] of over 100 µM. The NHDF viability in series [2] (+UVA 5.0 J/cm^2, 3.9 μmol/l) is reported as 105.1 % control; in series [2] (+UVA 5.0 J/cm^2, 7.8 μmol/l) it was 110.6 % control; in series [2] (+UVA 5.0 J/cm^2, 15.6 μmol/l) it was 106.8 % control; in series [2] (+UVA 5.0 J/cm^2, 31.3 μmol/l), 109.5 % control; in series [2] (+UVA 5.0 J/cm^2, 62.5 μmol/l), 103.3 % control; in series [2] (+UVA 5.0 J/cm^2, 125 μmol/l) it was 107.5 % control. The NHDF viability stood at 96.6 % control in series [2] (−UVA, 3.9 μmol/l); 106.5 % control in series [2] (−UVA, 7.8 μmol/l); 99.6 % control in series [2] (−UVA, 15.6 μmol/l); 102.4 % control in series [2] (−UVA, 31.3 μmol/l); 102.3 % control in series [2] (−UVA, 62.5 μmol/l); 109.7 % control in series [2] (−UVA, 125 μmol/l). Besides, the average lifespan in series [3] (10 μM in NGM) turned out to be 11.9 days; in series [3] (100 μM in NGM), 12.6 days. The values for the median lifespan in series [3] (10 μM in NGM) and in series [3] (100 μM in NGM) were 10.3 days and 10.2 days, respectively. In addition, the “effect on lifespan of worms (in words)” value in series [3] was “significantly prolonged”.

On to `OCc1ccc(CNc2ncnc3c2ncn3C2CCCO2)o1` (stereo not shown) [Compound 3, 6-(5-hydroxymethylfuran-2-ylmethylamino)-9-(tetrahydrofuran-2-yl)purine], for which the NHDF viability in series [2] (+UVA 5.0 J/cm^2, 3.9 μmol/l) amounted to 101.04 % control; in series [2] (+UVA 5.0 J/cm^2, 7.8 μmol/l), 106.46 % control; in series [2] (+UVA 5.0 J/cm^2, 15.6 μmol/l), 102.28 % control; in series [2] (+UVA 5.0 J/cm^2, 31.3 μmol/l) it was 107.4 % control; in series [2] (+UVA 5.0 J/cm^2, 62.5 μmol/l), 110.49 % control; in series [2] (+UVA 5.0 J/cm^2, 125 μmol/l), 111.8 % control. Besides, the NHDF viability was 103 % control in series [2] (−UVA, 3.9 μmol/l); 104.9 % control in series [2] (−UVA, 7.8 μmol/l); 104.2 % control in series [2] (−UVA, 15.6 μmol/l); 107.7 % control in series [2] (−UVA, 31.3 μmol/l); 106.6 % control in series [2] (−UVA, 62.5 μmol/l); 110.4 % control in series [2] (−UVA, 125 μmol/l).

Compound `c1csc(CNc2ncnc3c2ncn3C2CCCO2)c1` (stereo not shown) [Compound 9, 6-(thiophen-2-ylmethylamino)-9-(tetrahydrofuran-2-yl)purine] came in with an IC50 in series [1] of over 100 µM. In addition, the NHDF viability in series [2] (+UVA 5.0 J/cm^2, 3.9 μmol/l) is recorded as 97.8 % control; in series [2] (+UVA 5.0 J/cm^2, 7.8 μmol/l), 102.3 % control; in series [2] (+UVA 5.0 J/cm^2, 15.6 μmol/l) it was 100.8 % control; in series [2] (+UVA 5.0 J/cm^2, 31.3 μmol/l), 105.9 % control; in series [2] (+UVA 5.0 J/cm^2, 62.5 μmol/l), 102.8 % control; in series [2] (+UVA 5.0 J/cm^2, 125 μmol/l) it was 106.3 % control. Also, the NHDF viability was 100 % control in series [2] (−UVA, 3.9 μmol/l); 103 % control in series [2] (−UVA, 7.8 μmol/l); 100.5 % control in series [2] (−UVA, 15.6 μmol/l); 106.7 % control in series [2] (−UVA, 31.3 μmol/l); 107.9 % control in series [2] (−UVA, 62.5 μmol/l); 108.4 % control in series [2] (−UVA, 125 μmol/l).

`Clc1nc(NCc2ccco2)c2ncn(C3CCCO3)c2n1` (stereo not shown) [Compound 15, 2-chloro-6-furfurylamino-9-(tetrahydrofuran-2-yl)purine] gave an IC50 in series [1] of over 100 µM. The NHDF viability in series [2] (+UVA 5.0 J/cm^2, 3.9 μmol/l) is reported as 100.1 % control; in series [2] (+UVA 5.0 J/cm^2, 7.8 μmol/l), 101.5 % control; in series [2] (+UVA 5.0 J/cm^2, 15.6 μmol/l), 102.6 % control; in series [2] (+UVA 5.0 J/cm^2, 31.3 μmol/l), 102.9 % control; in series [2] (+UVA 5.0 J/cm^2, 62.5 μmol/l), 103.3 % control; in series [2] (+UVA 5.0 J/cm^2, 125 μmol/l) it was 97.3 % control. Moreover, the NHDF viability in series [2] (−UVA, 3.9 μmol/l) came to 100.3 % control; in series [2] (−UVA, 7.8 μmol/l), 103.5 % control; in series [2] (−UVA, 15.6 μmol/l), 104.3 % control; in series [2] (−UVA, 31.3 μmol/l), 105.4 % control; in series [2] (−UVA, 62.5 μmol/l) it was 106.3 % control; in series [2] (−UVA, 125 μmol/l) it was 101.2 % control. Further, the average lifespan in series [3] (10 μM in NGM) stood at 11.3 days; in series [3] (100 μM in NGM) it was 13.8 days. The median lifespan in series [3] (10 μM in NGM) was 9.4 days; in series [3] (100 μM in NGM), 10.3 days.

As to `Clc1nc(NCC2CCCO2)c2ncn(C3CCCO3)c2n1` (stereo not shown) [Compound 20, 2-chloro-6-(tetrahydrofuran-2-ylmethylamino)-9-(tetrahydrofuran-2-yl)purine], the NHDF viability in series [2] (+UVA 5.0 J/cm^2, 3.9 μmol/l) stood at 100.1 % control; in series [2] (+UVA 5.0 J/cm^2, 7.8 μmol/l) it was 102.9 % control; in series [2] (+UVA 5.0 J/cm^2, 15.6 μmol/l), 100.4 % control; in series [2] (+UVA 5.0 J/cm^2, 31.3 μmol/l) it was 102.7 % control; in series [2] (+UVA 5.0 J/cm^2, 62.5 μmol/l) it was 105.1 % control; in series [2] (+UVA 5.0 J/cm^2, 125 μmol/l) it was 104.8 % control. In addition, the NHDF viability in series [2] (−UVA, 3.9 μmol/l) was determined as 103.1 % control; in series [2] (−UVA, 7.8 μmol/l), 102.9 % control; in series [2] (−UVA, 15.6 μmol/l), 100.6 % control; in series [2] (−UVA, 31.3 μmol/l) it was 105.6 % control; in series [2] (−UVA, 62.5 μmol/l), 102 % control; in series [2] (−UVA, 125 μmol/l), 104 % control. Also, the average lifespan in series [3] (10 μM in NGM) is 12.4 days; in series [3] (100 μM in NGM), 11.2 days. Further, the results for the median lifespan in series [3] (10 μM in NGM) and in series [3] (100 μM in NGM) were 11.2 days and 10.2 days, respectively. Besides, the “effect on lifespan of worms (in words)” value in series [3] is on record as “significantly prolonged”.

Regarding `CN(C)CCCN1c2ccccc2Sc2ccc(Cl)cc21` [chlorpromazine, reference compound], the “viability of NHDF cells” value in series [2] (UVA+, 6.3 μmol/l) is on record as “below 80 % of control”; in series [2] (UVA−, 25 μmol/l), “below 80%”.
